Patent US7795255B2, “Rigidified compounds for modulating heparanase activity” (InSight Biopharmaceuticals Ltd., priority 2005, dated 2010)

What was measured:
[1] = target: T1, recombinant human pro-heparanase (H60) (Homo sapiens, UniProt Q9Y251); experiment: Pro-heparanase (H60) activation in a cell-based assay; conditions: inhibition of pro-heparanase activation in CHO cells; NI = no inhibition
T1 construct: Heparanase maturation involves the removal of the signal peptide, transforming the 65 kDa pre-pro-heparanase into a 60 kDa pro-heparanase; made in house
T1 sequence (Q9Y251 36-543): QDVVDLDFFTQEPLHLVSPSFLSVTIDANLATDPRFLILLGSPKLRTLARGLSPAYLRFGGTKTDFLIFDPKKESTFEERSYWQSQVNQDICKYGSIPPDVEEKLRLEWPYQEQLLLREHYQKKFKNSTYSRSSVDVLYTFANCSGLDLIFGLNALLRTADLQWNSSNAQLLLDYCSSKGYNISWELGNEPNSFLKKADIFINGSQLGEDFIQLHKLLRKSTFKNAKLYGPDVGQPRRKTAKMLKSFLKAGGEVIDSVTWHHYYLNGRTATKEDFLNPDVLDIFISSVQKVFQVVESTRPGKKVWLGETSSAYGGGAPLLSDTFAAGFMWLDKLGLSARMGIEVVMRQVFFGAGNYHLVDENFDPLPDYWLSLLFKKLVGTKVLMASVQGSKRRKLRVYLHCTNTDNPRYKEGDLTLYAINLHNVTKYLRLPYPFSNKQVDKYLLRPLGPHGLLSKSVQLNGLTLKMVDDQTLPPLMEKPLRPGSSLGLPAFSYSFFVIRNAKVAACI
Protocol: Pro-heparanase (H60) activation in a cell-based assay: Chinese hamster ovary (CHO) cells were grown in complete F12 medium supplemented with 10% fetal calf serum (FCS). […] The plates were incubated for 24 hours in a 37° C. humidified incubator with 5% CO2. […] The plates were further incubated for additional 4 hours. The pro-heparanase was allowed to internalize by the cells and further processed to generate the active 53 kDa heparanase. At the end of the incubation, the cells were lysed by three consecutive cycles of freezing and thawing in a −80° C. freezer and a 37° C. shaker.
The rigidified compounds described herein were tested for inhibition of pro-heparanase activation in the cell-based assay described above.

[2] = target: T2, heparanase (H53) (Homo sapiens, UniProt Q9Y251); experiment: Heparanase (H53) assay (DMB assay); type: biochemical; conditions: for dual activity: inhibition of pro-heparanase activation (H60) and of heparanase activity (H53): compounds with an acidic group; for IC50: inhibition of heparanase activity, DMB assay, NI = no inhibition
T2 construct: The 45 kDa major subunit and the 8 kDa small subunit hetero-complex to form the 53 kDa active form of heparanase
T2 sequence (Q9Y251 36-109 limits assumed): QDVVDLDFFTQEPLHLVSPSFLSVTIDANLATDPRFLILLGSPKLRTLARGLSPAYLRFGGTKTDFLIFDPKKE
T2 sequence (Q9Y251 158-543 limits assumed): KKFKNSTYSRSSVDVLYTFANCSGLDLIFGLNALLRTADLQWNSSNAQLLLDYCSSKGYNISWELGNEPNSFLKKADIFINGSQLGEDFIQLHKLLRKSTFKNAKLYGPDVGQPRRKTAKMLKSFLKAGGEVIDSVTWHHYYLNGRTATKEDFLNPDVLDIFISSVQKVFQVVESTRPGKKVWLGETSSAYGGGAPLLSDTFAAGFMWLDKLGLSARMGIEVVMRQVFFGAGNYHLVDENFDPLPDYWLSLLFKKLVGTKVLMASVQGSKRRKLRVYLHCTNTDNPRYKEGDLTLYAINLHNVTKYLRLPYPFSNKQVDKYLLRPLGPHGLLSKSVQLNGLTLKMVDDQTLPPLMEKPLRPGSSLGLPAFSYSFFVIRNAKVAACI
Protocol: Heparanase (H53) assay: The rigidified compounds described herein were tested for inhibition of heparanase activity in the DMB assay described in U.S. Pat. No. 6,190,875. IC50 was calculated from inhibition curves of all active compounds.

[3] = target: T3, vascular endothelial growth factor (VEGF) (Homo sapiens, UniProt P15692); experiment: ELISA for determination of binding of VEGF to heparin; conditions: for IC50: inhibition of VEGF binding to heparin, NI = no inhibition; for inhibition of VEGF binding to heparin: inhibition towards both growth factors
T3 sequence (P15692 27-191 isoform P15692-4): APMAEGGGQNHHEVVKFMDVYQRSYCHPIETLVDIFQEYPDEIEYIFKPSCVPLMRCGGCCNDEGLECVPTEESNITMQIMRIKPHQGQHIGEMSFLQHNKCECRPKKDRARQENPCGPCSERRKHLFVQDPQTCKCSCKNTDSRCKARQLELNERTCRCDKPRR
Protocol: Enzyme-linked immunosorbent assay (ELISA) for determination of binding of vascular endothelial growth factor (VEGF) to heparin: 96-well microplates were coated for 2 hours. at 23-25° C. with 5 μg/ml heparin-albumin (Rimon Biotech) and blocked with 1% bovine serum albumin (BSA) in phosphate buffer (PBS) with 0.05% Tween and 0.01% thimerosal for 2 hours. VEGF was added to the plates at a concentration of 10 ng/ml and the plates were thereafter incubated for 45 minutes at 23-25° C. The amount of VEGF bound to heparin was detected using anti-VEGF monoclonal antibody (Sigma Cat. No. V4758) at a concentration of 0.26 μg/ml and secondary antibodies Sheep anti-mouse IgG linked to horseradish peroxidase (1:2000) using 3,3′,5,5′-tetramethylbenzidine (TMB, Pierce Cat. No. 34021) as a substrate for peroxidase. The plates were read at 450 nm with a reference wavelength of 630 nm using a VERSAmax plate reader. […] Percent inhibition was calculated as compared with a control pre-incubated with a solution of 1% DMSO and the results are presented in Table 3 below.

[4] = target: β-FGF (Homo sapiens, UniProt P09038); experiment: ELISA for determination of binding of β-FGF to heparin; conditions: for IC50: inhibition of β-FGF binding to heparin, NI = no inhibition; for inhibition of β-FGF binding to heparin: inhibition towards both growth factors
Protocol: ELISA for determination of binding of β-FGF to heparin: 96-well microplates were coated for 2 hours at 23-25° C. with 5 μg/ml heparin-albumin (Rimon Biotech) and blocked with 1% BSA in PBS, with 0.05% Tween, and 0.01% thimerosal for 2 hours. β-FGF was added to the plates at a concentration of 10 ng/ml and plates were incubated for 45 minutes at 23-25° C. The amount of β-FGF bound to heparin was detected using anti-FGF monoclonal antibody (Sigma Cat. No. F6162) at a concentration of 2.5 ng/ml and secondary antibodies Sheep anti-mouse IgG linked to horseradish peroxidase (1:3000) TMB (Pierce Cat. No. 34021) was used as a substrate for peroxidase. The plates were read at 450 nm with a reference wavelength of 630 nm using a VERSAmax plate reader.

Sequence of β-FGF (P09038 143-288): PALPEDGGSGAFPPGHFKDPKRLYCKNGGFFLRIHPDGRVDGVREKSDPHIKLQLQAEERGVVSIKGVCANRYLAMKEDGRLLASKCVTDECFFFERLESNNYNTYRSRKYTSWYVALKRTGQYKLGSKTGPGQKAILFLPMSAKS

SMILES	IC50 [1] [nM]	dual activity: inhibition of pro-heparanase activation (H60) and of heparanase activity (H53) [2]	IC50 [2] [µM]	IC50 [3] [nM]	IC50 [4] [nM]	inhibition of VEGF binding to heparin [3]	inhibition of β-FGF binding to heparin [4]
O=C(O)CCCN1C(=O)c2cc3sc(-c4ccc([N+](=O)[O-])cc4)cc3n2C1=S [Compound 32, 4-[2-(4-Nitro-phenyl)-6-oxo-4-thioxo-6H-1-thia-3b,5-diaza-cyclopenta[a]pentalen-5-yl]-butyric acid]	700	–	27	–	–	–	–
CCOC(=O)CC(C)(C)CN1C(=O)c2cc3oc(-c4ccc([N+](=O)[O-])cc4)cc3n2C1=S [Compound 7, 3,3-dimethyl-4-[2-(4-nitro-phenyl)-6-oxo-4-thioxo-6H-1-oxa-3b,5-diaza-cyclopenta[a]pentalen-5-yl]-butyric acid ethyl ester]	2600	–	–	100	50	sub-micromolar	sub-micromolar
Cc1c(N2C(=O)c3cc4oc(-c5ccc(Cl)cc5)cc4n3C2=S)c(=O)n(-c2ccccc2)n1C [Compound 29, 2-(4-chloro-phenyl)-5-(1,5-dimethyl-3-oxo-2-phenyl-2,3-dihydro-1H-pyrazol-4-yl)-4-thioxo-4,5-dihydro-1-oxa-3b,5-diaza-cyclopenta[a]pentalen-6-one]	370	–	–	480	810	sub-micromolar	sub-micromolar
CCOC(=O)CCCN1C(=O)c2cc3sc(-c4ccc([N+](=O)[O-])cc4)cc3n2C1=S [Compound 31, 4-[2-(4-nitro-phenyl)-6-oxo-4-thioxo-6H-1-thia-3b,5-diaza-cyclopenta[a]pentalen-5-yl]-butyric acid ethyl ester]	560	–	74	70	280	sub-micromolar	sub-micromolar
COCCCN1C(=O)c2cc3oc(-c4ccc(Cl)cc4)cc3n2C1=S [Compound 28, 2-(4-Chloro-phenyl)-5-(3-methoxy-propyl)-4-thioxo-4,5-dihydro-1-oxa-3b,5-diaza-cyclopenta[a]pentalen-6-one]	6600	–	–	170	20	sub-micromolar	sub-micromolar
O=C(O)CCCN1C(=O)c2cc3oc(-c4cccc(C(F)(F)F)c4)cc3n2C1=S [Compound 26]	780	–	10.2	4800	1700	–	–
CCOC(=O)CCCN1C(=O)c2cc3oc(-c4cccc(C(F)(F)F)c4)cc3n2C1=S [Compound 25, ethyl 4-[6-oxo-4-thioxo-2-(3-trifluoromethyl-phenyl)-6H-1-oxa-3b,5-diaza-cyclopenta[a]pentalen-5-yl]-butyric acid ethyl ester]	2700	–	–	140	120	–	–

Now from value to molecule:

IC50 [1] [nM]	dual activity: inhibition of pro-heparanase activation (H60) and of heparanase activity (H53) [2]	IC50 [2] [µM]	IC50 [3] [nM]	IC50 [4] [nM]	inhibition of VEGF binding to heparin [3]	inhibition of β-FGF binding to heparin [4]	SMILES
1000	dual activity	66.2	7300	6500	–	–	CN(CC(=O)O)C(=O)CC(C)(C)CN1C(=O)c2cc3oc(-c4ccc(Cl)cc4)cc3n2C1=S [Compound 21, ({4-[2-(4-Chloro-phenyl)-6-oxo-4-thioxo-6H-1-oxa-3b,5-diaza-cyclopenta[a]pentalen-5-yl]-3,3-dimethyl-butyryl}-methyl-amino)-acetic acid]
1000	dual activity	11.8	6000	2100	–	–	O=C(O)CCCN1C(=O)c2cc3oc(-c4ccc(Cl)cc4)cc3n2C1=S [Compound 5, 4-[2-(4-chloro-phenyl)-6-oxo-4-thioxo-6H-1-oxa-3b,5-diaza-cyclopenta[a]pentalen-5-yl]-butyric acid]
320	–	–	420	350	sub-micromolar	sub-micromolar	COC(=O)CN(C)C(=O)CC(C)(C)CN1C(=O)c2cc3oc(-c4ccc(Cl)cc4)cc3n2C1=S [Compound 20, ({4-[2-(4-Chloro-phenyl)-6-oxo-4-thioxo-6H-1-oxa-3b,5-diaza-cyclopenta[a]pentalen-5-yl]-3,3-dimethyl-butyryl}-methyl-amino)-acetic acid methyl ester]
820	dual activity	–	9300	7900	–	–	CC(C)(CC(=O)N1CCC[C@@H]1C(=O)O)CN1C(=O)c2cc3oc(-c4ccc(Cl)cc4)cc3n2C1=S [Compound 23, 1-{4-[2-(4-Chloro-phenyl)-6-oxo-4-thioxo-6H-1-oxa-3b,5-diaza-cyclopenta[a]pentalen-5-yl]-3,3-dimethyl-butyryl}-pyrrolidine-2-carboxylic acid]
160	–	–	180	440	sub-micromolar	sub-micromolar	CN(C)CCCNC(=O)CC(C)(C)CN1C(=O)c2cc3oc(-c4ccc(Cl)cc4)cc3n2C1=S [Compound 15, 4-[2-(4-Chloro-phenyl)-6-oxo-4-thioxo-6H-1-oxa-3b,5-diaza-cyclopenta[a]pentalen-5-yl]-N-(3-dimethylamino-propyl)-3,3-dimethyl-butyramide]
150	–	–	420	870	sub-micromolar	sub-micromolar	CC(C)(CC(=O)N1CCOCC1)CN1C(=O)c2cc3oc(-c4ccc(Cl)cc4)cc3n2C1=S [Compound 17, 2-(4-Chloro-phenyl)-5-(2,2-dimethyl-4-morpholin-4-yl-4-oxo-butyl)-4-thioxo-4,5-dihydro-1-oxa-3b,5-diaza-cyclopenta[a]pentalen-6-one]
